Data: article PMC5108698 (Biopolymers, 2016)
“Also recorded” adds a separate entry of the source.

Key:
[1] = target: pancreatic trypsin (Sus scrofa, UniProt P00761); experiment: Trypsin inhibitory assay; type: biochemical; settings: recombinantly produced SFTI-1
[2] = NMR characterization in solution; type: physicochemical; settings: in-cell produced SFTI-1, approximately 0.2 mM, 80 mM potassium phosphate pH 6.5, 90% H2O/10% 2H2O, 298 K
[3] = system: trypsin (trypsin-sepharose beads); settings: incubated with trypsin; ref [34]; cited from earlier work
[4] = ref [10], [12]; cited from earlier work
[5] = system: mammalian cells; settings: ref [13]; cited from earlier work
[6] = system: cellular membranes; settings: ref [13]; cited from earlier work

Sequence of pancreatic trypsin (P00761 9-231): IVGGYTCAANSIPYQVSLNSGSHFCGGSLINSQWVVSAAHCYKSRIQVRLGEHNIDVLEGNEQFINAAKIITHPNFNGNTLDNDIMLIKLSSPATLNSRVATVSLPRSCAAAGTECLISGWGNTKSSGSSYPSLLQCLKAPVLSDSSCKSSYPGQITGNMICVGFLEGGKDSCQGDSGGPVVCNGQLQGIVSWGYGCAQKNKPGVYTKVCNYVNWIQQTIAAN

Compound: CC[C@H](C)[C@@H]1NC(=O)[C@@H]2CCCN2C(=O)[C@@H]2CCCN2C(=O)[C@H]([C@@H](C)CC)NC(=O)[C@H](CO)NC(=O)[C@H](CCCCN)NC(=O)[C@H]([C@@H](C)O)NC(=O)[C@@H]2CSSC[C@H](NC1=O)C(=O)N[C@@H](Cc1ccccc1)C(=O)N1CCC[C@H]1C(=O)N[C@@H](CC(=O)O)C(=O)NCC(=O)N[C@@H](CCCNC(=N)N)C(=O)N2 [SFTI-1, sunflower trypsin inhibitor 1]
- inhibition of trypsin [1]: actively inhibit trypsin; also recorded: fully active
- aggregation state in solution [2]: monodispersed
- equilibrium between cyclic and linear forms with trypsin [3]: reach equilibrium between the cyclic and the linear forms when incubated with trypsin
- stability to thermal or enzymatic degradation [4]: exceptional stability to thermal or enzymatic degradation
- toxicity to mammalian cells [5]: non-toxic to mammalian cells
- crossing of cellular membranes [6]: able to cross cellular membranes
